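Five compound concentrations were applied to cells in 96-well plates for 48 hours; endpoints were derived by simple linear interpolation of the resulting dose-response curve. GI50 marks 50% less growth. TGI marks complete inhibition of growth.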
Tests used:
Assay in all cases: NCI-60 cell line screen, 48 h
MDA-MB-435 = system: MDA-MB-435
NCI-H226 lung = system: NCI-H226 lung
SK-OV-3 ovarian = system: SK-OV-3 ovarian
RXF 393 renal = system: RXF 393 renal
ACHN renal = system: ACHN renal
NCI-H460 lung = system: NCI-H460 lung
MCF7 breast = system: MCF7 breast
SNB-19 CNS = system: SNB-19 CNS
U251 CNS = system: U251 CNS
SK-MEL-28 melanoma = system: SK-MEL-28 melanoma

SMILES | GI50 (MDA-MB-435) [µM] | TGI (MDA-MB-435) [µM] | GI50 (NCI-H226 lung) [µM] | TGI (NCI-H226 lung) [µM] | GI50 (SK-OV-3 ovarian) [µM] | TGI (SK-OV-3 ovarian) [µM] | GI50 (RXF 393 renal) [µM] | TGI (RXF 393 renal) [µM] | GI50 (ACHN renal) [µM] | TGI (ACHN renal) [µM] | GI50 (NCI-H460 lung) [µM] | TGI (NCI-H460 lung) [µM] | GI50 (MCF7 breast) [µM] | TGI (MCF7 breast) [µM] | GI50 (SNB-19 CNS) [µM] | TGI (SNB-19 CNS) [µM] | GI50 (U251 CNS) [µM] | TGI (U251 CNS) [µM] | GI50 (SK-MEL-28 melanoma) [µM] | TGI (SK-MEL-28 melanoma) [µM]
OC(CNc1ccnc2cc(Cl)ccc12)CNc1ccnc2cc(Cl)ccc12 | 1.67 | 3.1 | 2.98 | 9.3 | 1.92 | 3.89 | 1.7 | 3.19 | 5.09 | 28.2 | 1.83 | 3.52 |  |  |  |  |  |  |  | 
CC(C)C[C@H](NC(=O)CNC(=O)c1cc(Cl)ccc1Cl)B(O)O |  |  | 0.416 | 5.09 | 0.0997 | 8.26 | < 0.0138 | 0.0356 | < 0.0182 | 15.8 | 0.0831 | 0.919 | < 0.0196 | > 52.4 | 0.273 | > 87.8 | 0.0504 | 2.81 | < 0.0175 | 0.174
C=C(c1ccc(OC)c(/C=C/C(=O)c2ccc3c(c2)OCO3)c1)c1cc(OC)c(OC)c(OC)c1 |  |  |  |  | 5.07 | > 100 | 1.98 | 5.17 |  |  | 2.34 | 6.21 | 0.913 | > 100 | 2.79 | > 100 | 2.54 | 9.88 |  | 
CCOC(=O)c1cc(C(=O)c2ccc(OC)cc2)n2ccc(/C=C/c3cc[n+](CC(=O)c4ccc(OC)cc4)cc3)cc12 |  |  |  |  | > 100 | > 100 |  |  |  |  | 1.56 | 3.56 | 1.51 | 3.56 | 1.73 | 4.06 | 1.68 | 4.57 | 1.87 | 3.69
Cc1ccc(O)c(NC(=O)c2cccc(Nc3ccnc(C(F)(F)F)c3)c2)c1 | 6.65 | 25.9 | 0.894 | 23.4 | 16.6 | 62 |  |  | 9.65 | 48.8 | 10.4 | 35.3 | 4.21 | 26.5 | 17.9 | 69.8 | 15.6 | 37.6 | 16 | 31.2
CC1Cc2c(Cl)ncnc2N(C)c2ccc(Cl)cc21 (stereo not given) | 0.329 | 1.85 | 0.241 | 0.602 | 0.372 | 12.9 | 0.342 | 1.46 | 0.348 | > 100 | 0.381 | > 100 |  |  | 0.636 | > 100 | 0.378 | > 100 | 0.394 | 95.1
C=CN(C(=O)N1CCN(c2cc3c(cc2F)c(=O)c(C(=O)O)cn3C2CC2)CC1)c1nc(-c2ccc(OC)cc2)cs1 |  |  | 2.9 | > 100 |  |  | 5.2 | 45.1 | 3.77 | > 100 | 3.54 | > 100 | 3.36 | > 100 | 4.7 | 46 | 4.04 | 13.4 | 4.26 | > 100
O=C(/C=C\c1ccccc1O)c1ccc(O)cc1O |  |  |  | > 100 |  | > 100 |  | > 100 |  | > 100 |  | > 100 |  |  |  | > 100 |  | > 100 |  | > 100
Cc1ccc(C)c(N2C(=O)C(=O)C(c3nc4ccccc4s3)/C(=N/N)C2=O)c1 (stereo not given) |  |  |  | > 100 |  | > 100 |  | > 100 |  | > 100 |  | > 100 |  |  |  | > 100 |  | > 100 |  | > 100
C=CCNC(=O)NCCCCC(NC(C)=O)C(=O)NCc1ccccc1 (stereo not given) |  |  |  | > 100 |  | > 100 |  | > 100 |  | > 100 |  | > 100 |  |  |  | > 100 |  | > 100 |  | > 100
CC1(C)OC2C(CCP(=O)(O)O)OC(c3nc(C(N)=O)cs3)C2O1 (stereo not given) |  |  |  | > 100 |  | > 100 |  | > 100 |  | > 100 |  | > 100 |  |  |  | > 100 |  | > 100 |  | > 100
O=c1c2ccccc2sc2c(NCCCNCCO)nc3ccccc3c12 | 1.77 | 3.25 | 1.41 | 2.95 | 2.14 | 7.31 | 1.46 | 3.52 | 1.39 | 2.81 | 0.605 | 2.01 |  |  | 2.02 | 5.13 | 1.76 | 3.57 | 1.81 | 3.52
C=C(CCCCC)CN1CCCC1C(C)=O (stereo not given) |  |  |  | 68.9 |  | > 100 |  | > 95.7 |  | > 85.4 |  | > 85.3 |  |  |  | > 100 |  | > 100 |  | > 100
C=C(C)[C@H]1CC[C@@]2(C)C(C1)[C@H](C)CC[C@@H]2O (stereo not given in full) |  |  |  | > 100 |  | > 100 |  | > 100 |  | > 100 |  | > 100 |  |  |  | > 100 |  | > 100 |  | > 100
COC(=O)c1cc2c(=O)n(C)c3ccccc3n2c1C(=O)OC |  |  |  | 81.2 |  | 66.8 |  | > 100 |  | > 100 |  | > 100 |  |  |  | > 100 |  | 58.8 |  | > 100

Reference: PubChem BioAssay (NCI)
